Reference: patent publication US9962430B2, “Methods for treating pain associated with chronic pancreatitis” (priority 2012, dated 2018)

Columns and labels:
[1] = system: patients with CP; conditions: cited from earlier work
[2] = system: patients with type B pain from chronic pancreatitis; assay: Phase II dose-escalation trial: 10 point visual analogue scale (VAS) pain assessment; assay type: in vivo, human; conditions: for mean pain score (VAS): all patients, baseline mean VAS 5.79; for Pain (VAS 0-10), mean: 100 min post dose, baseline 6.04
[3] = system: patients with type B pain from chronic pancreatitis; assay: Phase II dose-escalation trial: daily opioid use converted to morphine equivalents; assay type: in vivo, human; conditions: for daily opioid usage (oral morphine equivalents): baseline 136 mg
[4] = system: patients with type B pain from chronic pancreatitis; assay: Phase II dose-escalation trial: quality of life by SF-36 score; assay type: in vivo, human; conditions: for mean SF-36 score: baseline 101.3
[5] = 800 CU (160 mcg) twice daily for seven days, drug administration arm

In the case of “depot secretin: subcutaneous depot secretin, 800 CU (160 mcg) twice daily, Tympner and Rosch 1986”, the serum amylase levels ([1]; 800 CU (160 mcg) twice daily for seven days) is given as “strong trend towards decreased”, the lactoferrin [1, 5] is given as “decreased” and the trypsin [1, 5] is given as “decreased”. The “viscosity of pancreatic secretion” value [1, 5] was “decreased” and the “pain levels at the end of the study” value ([1]; 800 CU (160 mcg) twice daily injection for seven days, p<0.05) was “significantly improved”.
In the case of “sHS: ChiRhoStim (human secretin for injection) provided by ChiRhoClin Inc.; 27 amino acid gastrointestinal peptide hormone”, the “mean pain (VAS), female subgroup” value ([2]; day 30, females, baseline 5.42, p=0.07) is reported as 3.67, the “optimal dosing based on the change in the VAS score” value ([2]; dose-escalation 0.05-0.8 mcg/kg IV bolus) is reported as 0.4 µg/kg and the “mean pain score (VAS)” value ([2]; post-treatment day 4, p=0.25 vs baseline, IV bolus 3x/day for 3 days) is reported as 4.80. The “mean pain score (VAS)” value ([2]; post-treatment day 10, p=0.19 vs baseline) was 4.72, the “mean pain score (VAS)” value ([2]; post-treatment day 30, p=0.27 vs baseline) was 4.90 and the “Pain (VAS 0-10), mean” value ([2]; sHS dose 0.05 μg/kg) was 4.92. The “Pain (VAS 0-10), mean” value ([2]; sHS dose 0.1 μg/kg) was 5.06, the “Pain (VAS 0-10), mean” value ([2]; sHS dose 0.2 μg/kg) was 4.92 and the “Pain (VAS 0-10), mean” value ([2]; sHS dose 0.4 μg/kg) was 4.5. For the same substance, the “Pain (VAS 0-10), mean” value ([2]; sHS dose 0.8 μg/kg) was 5.36, the “daily opioid equivalent, females” value ([3]; Day 30, females, baseline 107 mg, p=0.53) was 84 mg and the “daily opioid usage (oral morphine equivalents)” value ([3]; day 4 post-therapy, p=0.52) was 111 mg. The “daily opioid usage (oral morphine equivalents)” value ([3]; day 30 post-therapy, p=0.34) was 104 mg, the “mean SF-36 score” value ([4]; day 4) was 100.9 and the “mean SF-36 score” value ([4]; day 30) was 101.5. For the same substance, the “quality of life as measured by SF-36 with therapy” value ([4]; overall statement) was “unaltered”.
